The source of these data is patent US20250295096A1, “A RODENT MODEL OF FIBRODYSPLASIA OSSIFICANS PROGRESSIVA” (REGENERON PHARMACEUTICALS, INC., priority 2022, published 2025).

For the assay, the system named is Acvr1^huecto[R206H]FIEx;[S330P]/+; Nanog-Cre mice ("FOP mice"). The assay can be described thus: Anti-Activin A antibody treatment of FOP mice: survival and HO formation. In kind it is in vivo, mouse. The method, then: Wild type mice and Acvr1^huecto[R206H]FIEx;[S330P]/+; Nanog-Cre mice (“FOP mice”) were treated with an anti-Activin A monoclonal antibody (Garetosmab) or an isotype control antibody.
Wild type mice and Acvr1^huecto[R206H]FIEx;[S330P]/+; Nanog-Cre mice (“FOP mice”) were treated with an anti-Activin A monoclonal antibody (Garetosmab) and an isotype control antibody. […] The deaths in untreated FOP mice are believed to be possibly due to jaw HO.

Take “Garetosmab: anti-Activin A monoclonal antibody”: the HO formation entry (compared with isotype control antibody) is on record as “inhibited HO formation”. Moreover, the survival (treatment initiated at 2 weeks of age, survival through 8 weeks of age) is recorded as 100%.
